# Measurements reported in article PMC5052559, “A fragment-based approach applied to a highly flexible target: Insights and challenges towards the inhibition of HSP70 isoforms” (Scientific Reports, 2016).
# What was measured:
# [1] = target: T1, WT HSC70-NBD (Homo sapiens, UniProt P11142); test: SPR binding to wild-type HSC70-NBD; details: for Kd / Kd WT HSC70-NBD: 25 °C; for LE (ligand efficiency): calculated using the SPR Kd on WT HSC70-NBD
# T1 construct: WT HSPA8 (HSC70) residues 1 to 381; GST (N, cleaved yes); made in house; host or cells: E. coli BL21-AI (expressed as described for FL-HSP72)
# T1 sequence (P11142 1-381): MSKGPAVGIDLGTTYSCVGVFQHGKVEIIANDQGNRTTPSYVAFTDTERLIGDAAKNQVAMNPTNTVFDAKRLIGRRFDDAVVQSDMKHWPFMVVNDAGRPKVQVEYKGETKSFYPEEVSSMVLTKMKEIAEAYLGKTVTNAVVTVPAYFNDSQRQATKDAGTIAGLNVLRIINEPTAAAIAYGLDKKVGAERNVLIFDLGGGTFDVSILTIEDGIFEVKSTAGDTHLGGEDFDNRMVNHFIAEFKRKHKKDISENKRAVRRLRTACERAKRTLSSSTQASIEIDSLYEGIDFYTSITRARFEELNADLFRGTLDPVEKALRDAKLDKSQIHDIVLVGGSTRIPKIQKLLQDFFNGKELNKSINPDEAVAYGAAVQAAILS
# Method: (§1) SPR experiments were carried out using a Biacore T200 (GE Healthcare) at 25 °C. Amine coupling chemistry was used to immobilise the HSC70 NBD domain and S275W, S275F and S275A HSC70-NBD mutant proteins on a carboxymethyl-5′-dextran (CM5) sensor chip. The chip’s surface was activated with a 10 min injection of a 1:1 mixture of 100 mM N-hydroxysuccinimide and 400 mM 1-ethyl-3-(3-dimethylaminopropyl)-carbodiimide. […] The remaining activated groups on the surface were blocked with a 7 min injection of 1 M ethanolamine at pH 8.5. […] Flow cell one was left unmodified as the reference surface.
# (§2) In addition, a DMSO correction curve, prepared as described in the GE manual, was used to correct the effects of the solvent on signal intensity. Raw SPR data from the single point screen was processed and analysed using Pipeline Pilot version 8.0.1.500[37]. Firstly, the reported binding level for each fragment was corrected by subtraction of the buffer blank.
# (§3) The initial fragment hits were further investigated in a three-point concentration-response experiment against freshly immobilised WT HSC70-NBD and the S275W HSC70-NBD mutants using the same experimental protocol as for the primary screen. Compound dilutions of 50, 100 and 200 μM were generated using the ECHO 550.
# [2] = target: T2, S275W HSC70-NBD (Homo sapiens, UniProt P11142, S275W); test: SPR binding to S275W HSC70-NBD mutant
# T2 construct: WT HSPA8 (HSC70) residues 1 to 381; GST (N, cleaved yes); made in house; host or cells: E. coli BL21-AI (expressed as described for FL-HSP72)
# T2 sequence (P11142 1-381 S275W): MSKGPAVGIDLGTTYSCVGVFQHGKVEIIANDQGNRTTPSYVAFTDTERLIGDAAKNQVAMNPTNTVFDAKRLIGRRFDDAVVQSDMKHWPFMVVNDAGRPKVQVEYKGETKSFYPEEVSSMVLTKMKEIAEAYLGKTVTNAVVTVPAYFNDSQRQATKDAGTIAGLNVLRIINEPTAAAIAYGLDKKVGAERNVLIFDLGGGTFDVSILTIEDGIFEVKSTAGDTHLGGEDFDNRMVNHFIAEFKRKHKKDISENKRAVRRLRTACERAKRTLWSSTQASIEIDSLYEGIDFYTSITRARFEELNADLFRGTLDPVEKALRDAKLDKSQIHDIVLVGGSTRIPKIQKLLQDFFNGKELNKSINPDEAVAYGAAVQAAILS
# Method: as §1, §2, §3
# [3] = target: T3, S275F HSC70-NBD (Homo sapiens, UniProt P11142, S275F); test: SPR binding to S275F HSC70-NBD mutant
# T3 construct: WT HSPA8 (HSC70) residues 1 to 381; GST (N, cleaved yes); made in house; host or cells: E. coli BL21-AI (expressed as described for FL-HSP72)
# T3 sequence (P11142 1-381 S275F): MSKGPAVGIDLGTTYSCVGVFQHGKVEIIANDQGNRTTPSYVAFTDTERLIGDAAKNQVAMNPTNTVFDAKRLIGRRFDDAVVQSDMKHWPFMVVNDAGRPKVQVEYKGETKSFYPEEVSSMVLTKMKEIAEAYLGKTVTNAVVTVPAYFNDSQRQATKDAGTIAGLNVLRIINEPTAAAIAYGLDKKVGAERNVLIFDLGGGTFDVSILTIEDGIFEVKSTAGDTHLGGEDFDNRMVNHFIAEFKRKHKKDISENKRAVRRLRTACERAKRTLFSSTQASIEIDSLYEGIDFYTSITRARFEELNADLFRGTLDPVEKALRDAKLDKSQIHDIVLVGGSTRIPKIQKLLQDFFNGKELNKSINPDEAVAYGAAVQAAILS
# Method: SPR experiments were carried out using a Biacore T200 (GE Healthcare) at 25 °C. Amine coupling chemistry was used to immobilise the HSC70 NBD domain and S275W, S275F and S275A HSC70-NBD mutant proteins on a carboxymethyl-5′-dextran (CM5) sensor chip. The chip’s surface was activated with a 10 min injection of a 1:1 mixture of 100 mM N-hydroxysuccinimide and 400 mM 1-ethyl-3-(3-dimethylaminopropyl)-carbodiimide. The HSC70 proteins (70 μg/mL in 10 mM sodium acetate, 750 μM ADP, pH 5.0) were immobilised on the surface over a 10 min injection period. The remaining activated groups on the surface were blocked with a 7 min injection of 1 M ethanolamine at pH 8.5. For all the above procedures the flow rate was maintained at 10 μL/min and a 1x phosphate buffered saline running buffer (PBS running buffer: 10 mM NaHPO4/NaH2PO4 pH 7.4, 2.7 mM KCl, 137 mM NaCl) was used during immobilisation. Approximately ~13,000 response units (RU) of protein could be routinely captured on the CM5 chip on flow cells two to four. Flow cell one was left unmodified as the reference surface. Our in-house fragment library of 1962 fragments at a stock concentration of 100 mM in 100% (v/v) was screened. SPR screening plates were prepared by dispensing of 0.1 μL of each fragment in 384-well polypropylene V-bottomed plates (Greiner) using an ECHO 550 acoustic liquid dispenser (Labcyte) followed by addition of fresh DMSO and running buffer to give a final fragment concentration of 125 μM in 5% (v/v) DMSO in an assay volume of 80 μL.
# The full fragment screen was carried out against freshly immobilised WT-HSC70 NBD and the S275W and S275F HSC70-NBD mutants, using the same experimental setting as for the clean screen and a final fragment concentration of 125 μM. Injections of running buffer and of 125 μM adenosine, which was used as a positive control to monitor the health of the protein, were carried out at intervals of 35 cycles throughout the screen. In addition, a DMSO correction curve, prepared as described in the GE manual, was used to correct the effects of the solvent on signal intensity. Raw SPR data from the single point screen was processed and analysed using Pipeline Pilot version 8.0.1.500[37]. Firstly, the reported binding level for each fragment was corrected by subtraction of the buffer blank. Secondly, the values were corrected for the molecular weight of each fragment and the binding was normalised to the binding level observed for the closest adenosine control. […] However, fragments with a binding level exceeding two times the theoretical Rmax were excluded, as we considered this an indication of superstoichiometric binding. Finally, fragments showing preferred binding to wild-type HSC70-NBD versus the HSC70-NBD mutants with a blocked adenine sub pocket were identified by plotting the binding levels of the fragments to wild-type HSC70-NBD against the binding levels of the respective mutant HSC70-NBD variants and added to the primary hit list. In total this procedure yielded 54 initial fragment hits.
# [4] = target: T4, HSC70-NBD S275A mutant (Homo sapiens, UniProt P11142, S275A); test: SPR binding to S275A HSC70-NBD mutant; details: n = 3
# T4 construct: WT HSPA8 (HSC70) residues 1 to 381; GST (N, cleaved yes); made in house; host or cells: E. coli BL21-AI (expressed as described for FL-HSP72)
# T4 sequence (P11142 1-381 S275A): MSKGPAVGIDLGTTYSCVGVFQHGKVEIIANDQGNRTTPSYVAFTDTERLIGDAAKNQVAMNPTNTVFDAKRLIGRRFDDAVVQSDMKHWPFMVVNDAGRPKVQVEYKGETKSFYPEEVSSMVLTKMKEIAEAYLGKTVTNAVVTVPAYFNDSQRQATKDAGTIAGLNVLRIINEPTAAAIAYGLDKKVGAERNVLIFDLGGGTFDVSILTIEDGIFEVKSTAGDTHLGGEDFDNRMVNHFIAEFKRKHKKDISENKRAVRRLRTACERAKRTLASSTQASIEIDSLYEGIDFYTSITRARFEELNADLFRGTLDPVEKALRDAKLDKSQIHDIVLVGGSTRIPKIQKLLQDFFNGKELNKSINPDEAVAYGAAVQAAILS
# Method: SPR experiments were carried out using a Biacore T200 (GE Healthcare) at 25 °C. Amine coupling chemistry was used to immobilise the HSC70 NBD domain and […], […] and […] HSC70-NBD mutant proteins on a carboxymethyl-5'-dextran (CM5) sensor chip. […] The remaining activated groups on the surface were blocked with a 7 min injection of 1 M ethanolamine at pH 8.5. For all the above procedures the flow rate was maintained at 10 μL/min and a 1x phosphate buffered saline running buffer (PBS running buffer: 10 mM NaHPO4/NaH2PO4 pH 7.4, 2.7 mM KCl, 137 mM NaCl) was used during immobilisation. Approximately ~13,000 response units (RU) of protein could be routinely captured on the CM5 chip on flow cells two to four. Flow cell one was left unmodified as the reference surface. Our in-house fragment library of 1962 fragments at a stock concentration of 100 mM in 100% (v/v) was screened. SPR screening plates were prepared by dispensing of 0.1 μL of each fragment in 384-well polypropylene V-bottomed plates (Greiner) using an ECHO 550 acoustic liquid dispenser (Labcyte) followed by addition of fresh DMSO and running buffer to give a final fragment concentration of 125 μM in 5% (v/v) DMSO in an assay volume of 80 μL. The initial fragment hits were further investigated in a three-point concentration-response experiment against freshly immobilised WT HSC70-NBD and the […] HSC70-NBD mutants using the same experimental protocol as for the primary screen. Compound dilutions of 50, 100 and 200 μM were generated using the ECHO 550. A confirmed hit was defined as a fragment giving greater than 10% response compared to adenosine and these were prioritised on the basis of their concentration response, ratio of experimental and theoretical Rmax, and shape of the sensorgrams, and expected fast on/fast off binding kinetics. […] HSC70-NBD mutant. […] Nucleotides were dissolved in double distilled water to give 10 mM stock solutions, then diluted 40X with DMSO and tested using a concentration range between 0.0625 μM and 2.5 μM.
# [5] = SPR, mean ± SD, No binding = binding level ≤10RU at 1mM
# [6] = SPR, mean ± standard deviation or standard error, triplicate unless marked duplicate/single
SMILES,"Kd [1, 5] [µM]",LE (ligand efficiency) [1],"Kd [1, 6] [µM]",further results
"Nc1ncnc2c1ncn2[C@@H]1O[C@H](COP(=O)(O)OP(=O)(O)O)[C@@H](O)[C@H]1O [ADP, reference compound]",0.71 ± 0.32,0.31,–,binding to S275W HSC70-NBD mutant (in words) [2]: abolished binding; binding to S275F HSC70-NBD mutant (in words) [3]: abolished binding; Kd [4]: 5.6 ± 2.4 µM
"Nc1ncnc2c1ncn2[C@@H]1O[C@H](COP(=O)(O)OP(=O)(O)OP(=O)(O)O)[C@@H](O)[C@H]1O [ATP, reference compound]",0.33,0.29,–,Kd [4]: 2.1 µM
"Nc1ncnc2c1ncn2[C@@H]1O[C@H](CO)[C@@H](O)[C@H]1O [Adenosine, adenosine, reference compound]",165,0.28,–,binding to S275W HSC70-NBD mutant (in words) [2]: abolished binding; binding to S275F HSC70-NBD mutant (in words) [3]: abolished binding; Kd [4]: 1800 ± 520 µM
"Nc1ccn([C@@H]2O[C@H](COP(=O)(O)OP(=O)(O)O)[C@@H](O)[C@H]2O)c(=O)n1 [CDP, reference compound]",–,–,–,"Kd WT HSC70-NBD [1, 5]: No binding"
CN1N=C(N)c2c[nH]c3ncnc1c23 [Compound 3],–,–,3500 ± 600,–
"Nc1ncnc2c1nc(N)n2[C@@H]1O[C@H](CO)[C@@H](O)[C@H]1O [Compound 4, 8-aminoadenosine, reference compound]",8,0.35,–,–
"Nc1ncnc2[nH]cnc12 [Compound 5, adenine, reference compound]",–,–,–,"Kd WT HSC70-NBD [1, 5]: No binding"
"Nc1nc2ncnc(N)c2[nH]1 [Compound 6, 8-aminoadenine, reference compound]",2100,0.34,–,–
O=c1[nH]cnc2c1oc1ccccc12 [Compound 7],–,0.27,1700 ± 600,binding to S275W HSC70-NBD mutant (in words) [2]: reduced binding and a low degree of saturation; binding to S275F HSC70-NBD mutant (in words) [3]: reduced binding and a low degree of saturation
Cc1nc(N)c2ccccc2n1 [Compound 11],–,–,–,binding to WT HSC70-NBD (in words) ([1]; SPR): no detectable affinity

# More lines, main results first:
"Kd [1, 5] [µM]",LE (ligand efficiency) [1],"Kd [1, 6] [µM]",SMILES,further results
–,0.33,1400 ± 100,Cc1ccc2ncnc(N)c2c1 [Compound 8],binding to S275W HSC70-NBD mutant (in words) [2]: reduced binding and a low degree of saturation; binding to S275F HSC70-NBD mutant (in words) [3]: reduced binding and a low degree of saturation
–,–,2100,Nc1ncnc2ccccc12 [Compound 10],–
–,–,12000,Cc1cccc2ncnc(N)c12 [Compound 12],–
–,–,800,"Cc1ccc2c(N)ncnc2c1 [Compound 13, 7-methyl 4-aminoquinazoline]",–
–,–,2900,Cc1cccc2c(N)ncnc12 [Compound 14],–
